Measured values from a compilation of properties of binary mixtures (doi:10.1021/je00020a016).

Assay: excess molar enthalpy (molar enthalpy of mixing); xn = mol fraction of the nth substance listed
Details: 100 kPa

CCOC(=O)OCC + CC1COC(=O)O1
excess molar enthalpy [kcal/mol]
Details | 298.15 K | 313.15 K
x2 = 0.0482 | – | 0.0351
x2 = 0.0668 | 0.033 | –
x2 = 0.0919 | – | 0.0559
x2 = 0.1066 | 0.0504 | –
x2 = 0.1518 | 0.0631 | –
x2 = 0.1528 | – | 0.0698
x2 = 0.1926 | 0.07 | –
x2 = 0.1933 | – | 0.0755
x2 = 0.2623 | 0.0784 | –
x2 = 0.2644 | – | 0.0846
x2 = 0.3231 | 0.0593 | –
x2 = 0.4172 | 0.0605 | –
x2 = 0.4183 | – | 0.0915
x2 = 0.4884 | 0.0822 | –
x2 = 0.4895 | – | 0.0894
x2 = 0.5888 | 0.0765 | –
x2 = 0.6824 | 0.066 | –
x2 = 0.742 | 0.0583 | 0.0607
x2 = 0.8118 | 0.0452 | –
x2 = 0.8519 | 0.0373 | 0.0387
x2 = 0.8962 | 0.0263 | 0.0284
x2 = 0.9452 | 0.0139 | 0.0151
x2 = 0.9718 | 0.00765 | 0.00789

CC1COC(=O)O1 (stereo not drawn) + COC(=O)OC
Details | excess molar enthalpy [kcal/mol]
298.15 K, x1 = 0.0474 | 0.0131
298.15 K, x1 = 0.0905 | 0.0203
298.15 K, x1 = 0.1106 | 0.0227
298.15 K, x1 = 0.1428 | 0.0253
298.15 K, x1 = 0.1993 | 0.0272
298.15 K, x1 = 0.2491 | 0.0272
298.15 K, x1 = 0.3989 | 0.0244
298.15 K, x1 = 0.4988 | 0.0217
298.15 K, x1 = 0.5989 | 0.0184
298.15 K, x1 = 0.6656 | 0.0158
298.15 K, x1 = 0.7491 | 0.0127
298.15 K, x1 = 0.7993 | 0.0103
298.15 K, x1 = 0.8566 | 0.00741
298.15 K, x1 = 0.8884 | 0.0055
298.15 K, x1 = 0.9228 | 0.00382
298.15 K, x1 = 0.9598 | 0.00191
313.15 K, x1 = 0.0658 | 0.0217
313.15 K, x1 = 0.1429 | 0.0284
313.15 K, x1 = 0.2001 | 0.0296
313.15 K, x1 = 0.2502 | 0.0294
313.15 K, x1 = 0.3335 | 0.0284
313.15 K, x1 = 0.4002 | 0.0268
313.15 K, x1 = 0.5002 | 0.0232
313.15 K, x1 = 0.6003 | 0.0191
313.15 K, x1 = 0.6669 | 0.0167
313.15 K, x1 = 0.7502 | 0.0129
313.15 K, x1 = 0.8001 | 0.0108
313.15 K, x1 = 0.8563 | 0.00813
313.15 K, x1 = 0.889 | 0.00598
313.15 K, x1 = 0.96 | 0.00215

CCOC(=O)OCC + COC(=O)OC
excess molar enthalpy [kcal/mol]
Details | 298.15 K | 313.15 K
x2 = 0.0565 | 0.00765 | 0.00645
x2 = 0.107 | 0.0148 | –
x2 = 0.1522 | – | 0.0179
x2 = 0.1932 | – | 0.0213
x2 = 0.1934 | 0.0234 | –
x2 = 0.2643 | – | 0.0272
x2 = 0.3241 | 0.0349 | –
x2 = 0.4181 | – | 0.0368
x2 = 0.4892 | – | 0.0387
x2 = 0.5896 | – | 0.0387
x2 = 0.6831 | – | 0.0349
x2 = 0.6834 | 0.0373 | –
x2 = 0.7418 | – | 0.0315
x2 = 0.7421 | 0.0335 | –
x2 = 0.8117 | – | 0.0265
x2 = 0.8119 | 0.027 | –
x2 = 0.8518 | – | 0.021
x2 = 0.8962 | 0.017 | –
x2 = 0.8995 | – | 0.0158
x2 = 0.92 | – | 0.0124
x2 = 0.9201 | 0.0141 | –
x2 = 0.9453 | 0.00932 | –
x2 = 0.9718 | – | 0.00454
x2 = 0.9719 | 0.00478 | –
